Measurements: patent publication US20100210652A1, “Method For Controlling Fungal Pests” (priority 2006, published 2010)

Legend:
[1] = test system: sensitive Plasmopara viticola strains; assay: Activity against sensitive Plasmopara viticola strains on grapevine plants (Riesling); assay type: in vivo; details: final evaluation on day 6
Protocol: (§1) Study on the activity of the four carboxamide fungicides against sensitive and resistant Plasmopara viticola strains.
(§2) Four-week old grapevine plants (Riesling) with 6-8 leaves are treated with 50 ml of a solution which contains the harmful fungi (200 000 spores of the fungus Plasmopara viticola per milliliter). Tests are carried out both with sensitive and with resistant strains.
(§3) The fungicidal active substances described in Example 1 are applied both one day before the treatment with the harmful fungi (preventative treatment) and in each case one day after the treatment with the harmful fungi (curative treatment). After the treatment with the harmful fungi, the plants are left to stand overnight at 95% atmospheric humidity and a temperature of 18° C. This is followed by a 6-day observation phase and a final evaluation on day 6, the test plants being exposed to daylight for 12 hours and left to stand in the dark for 12 hours.
(§4) To promote spore development, the undersides of the grapevine leaves are sprayed with water 24 hours before carrying out the final evaluation and left to stand.
(§5) The experiments are evaluated by determining the percentage of diseased leaf area of each plant. A high percentage means a high disease level caused by the harmful fungus, while a low percentage means a low disease level caused by the harmful fungus.

[2] = test system: resistant Plasmopara viticola strains; assay: Activity against resistant Plasmopara viticola strains on grapevine plants (Riesling); assay type: in vivo; details: for diseased leaf area: resistant fungi, grapevine (Riesling), final evaluation on day 6; for assessment in words of the treatment of resistant fungal strains: preventative treatment
Protocol: as §1, §2, §3, §4, §5

[3] = curative treatment (one day after treatment with the harmful fungi)
[4] = preventative treatment (one day before treatment with the harmful fungi)

CC(C)OC(=O)N[C@H](C(=O)N[C@H](C)c1nc2ccc(F)cc2s1)C(C)C [stock solution D, isopropyl[(S)-1-{[(R)-1-(6-fluoro-1,3-benzothiazol-2-yl)ethyl]carbamoyl}-2-methylpropyl]carbamate]
diseased leaf area [1, 3]: 0%
diseased leaf area [1, 4]: 0%
diseased leaf area [2, 3]: 70%
diseased leaf area [2, 4]: 55%
assessment in words of the treatment of resistant fungal strains [2]: no satisfactory results

Cc1ccc(C(C)NC(=O)[C@@H](NC(=O)OC(C)C)C(C)C)cc1 (stereo partly drawn) [stock solution C, isopropyl 2-methyl-1-[(1-p-tolylethyl)carbamoyl]-(S)-propylcarbamate]
diseased leaf area [1, 3]: 0%
diseased leaf area [1, 4]: 0%
diseased leaf area [2, 3]: 75%
diseased leaf area [2, 4]: 70%
assessment in words of the treatment of resistant fungal strains [2]: no satisfactory results

C#CCOc1ccc(CCNC(=O)C(OCC#C)c2ccc(Cl)cc2)cc1OC (racemic) [stock solution B, (RS)-2-(4-chlorophenyl)-N-[3-methoxy-4-(prop-2-ynyloxy)phenethyl]-2-(prop-2-ynyloxy)acetamide]
diseased leaf area [1, 3]: 0%
diseased leaf area [1, 4]: 0%
diseased leaf area [2, 3]: 65%
diseased leaf area [2, 4]: 8%
assessment in words of the treatment of resistant fungal strains [2]: effective

COc1ccc(C(=CC(=O)N2CCOCC2)c2ccc(Cl)cc2)cc1OC [stock solution A, (E,Z)-4-[3-(4-chlorophenyl)-3-(3,4-dimethoxyphenyl)acryloyl]morpholine]
diseased leaf area [1, 3]: 0%
diseased leaf area [1, 4]: 0%
diseased leaf area [2, 3]: 70%
diseased leaf area [2, 4]: 0.5%
assessment in words of the treatment of resistant fungal strains [2]: effective
